Experimental findings from patent US4257941A, “Polycyclic nitrogen-containing compounds” (BASF Aktiengesellschaft, priority 1976, dated 1981) are described below.

Assay [1] has as its system wheat. Put plainly: Growth height of wheat, greenhouse (Example 7). The class given is in vivo, wheat (Opal variety). The note with it: for Plant height relative: control 100. An excerpt: (§1) In the greenhouse, the four cereals wheat ("Opal" variety), rye ("Petkuser"), barley ("Villa") and oats ("Flamingskrone") were sown in plastic dishes 11.5 cm in diameter in a sandy loam adequately supplied with nutrients. The active ingredients were applied at various rates to the soil and to the leaves. When applied to the soil, the active ingredient were sprayed onto the surface of the soil on the day of sowing; in the case of leaf treatment, the leaves were sprayed in the usual manner at a growth height of the plants of 10 cm. During the 18 day growth period, the treated plants grew much more slowly than the untreated control, a fact later confirmed by measurements of the stem length. Measurements were taken of 100 plants from each series.
(§2) The prior art agent used for comparison purposes was N-2-chloroethyl-N,N,N-trimethylammonium chloride (CCC; German Printed Application DAS No. 1,294,734).

Assay [2] has as its system rye. Put plainly: Growth height of rye, greenhouse (Example 8). The class given is in vivo, rye (Petkuser). The following applies: for Plant height relative: control 100.
Source text: as §1, §2

The test system of assay [3] is barley. Put plainly: Growth height of barley, greenhouse (Example 9). The class given is in vivo, barley (Villa). The following applies: soil; for Plant height relative: control 100.
Source text: as §1, §2

Assay [4] has as its system lawns. Briefly: Long-term action on lawns (Example 14). The class given is in vivo. The following applies: for First cutting, green weight relative / First cutting, growth height relative / Second cutting, green weight relative / Second cutting, growth height relative / Third cutting, green weight relative: control 100.

On to `Clc1ccc(N2N=NC3C4CC(C5N=NC45)C32)cc1` (stereo not shown) [drawing 344], for which the Plant height stood at 28.5 cm in assay [1] (soil, 0.5 kg/ha); 23.0 cm in assay [1] (soil, 1.0 kg/ha); 20.5 cm in assay [1] (soil, 2.0 kg/ha); 10.5 cm in assay [1] (soil, 6.0 kg/ha). For the same compound, the Plant height relative in assay [1] (soil, 0.5 kg/ha) is given as 91.9; in assay [1] (soil, 1.0 kg/ha) it was 74.2; in assay [1] (soil, 2.0 kg/ha) it was 66.1; in assay [1] (soil, 6.0 kg/ha), 33.9.

For `Brc1ccc(N2N=NC3C4CC(C5N=NC45)C32)cc1` (stereo not shown) [drawing 345], the Plant height in assay [1] (soil, 0.5 kg/ha) was found to be 27.5 cm; in assay [1] (soil, 1.0 kg/ha) it was 22.5 cm; in assay [1] (soil, 2.0 kg/ha) it was 15.5 cm; in assay [1] (soil, 6.0 kg/ha) it was 11.5 cm. For the same compound, the Plant height relative in assay [1] (soil, 0.5 kg/ha) is 88.7; in assay [1] (soil, 1.0 kg/ha), 72.6; in assay [1] (soil, 2.0 kg/ha), 50.0; in assay [1] (soil, 6.0 kg/ha), 31.7.

For the compound `Clc1ccc(N2N=NC3C4CC(C5N=NC45)C32)cc1` (stereo not shown) [drawing 346], the Plant height is 24.0 cm in assay [1] (leaf, 0.125 kg/ha); 22.0 cm in assay [1] (leaf, 0.5 kg/ha); 20.0 cm in assay [1] (leaf, 1.0 kg/ha); 19.0 cm in assay [1] (leaf, 2.0 kg/ha); 17.5 cm in assay [1] (leaf, 4.0 kg/ha). The Plant height relative is reported as 80.0 in assay [1] (leaf, 0.125 kg/ha); 73.3 in assay [1] (leaf, 0.5 kg/ha); 66.6 in assay [1] (leaf, 1.0 kg/ha); 63.3 in assay [1] (leaf, 2.0 kg/ha); 58.3 in assay [1] (leaf, 4.0 kg/ha).

In the case of `Brc1ccc(N2N=NC3C4CC(C5N=NC45)C32)cc1` (stereo not shown) [drawing 347], the Plant height in assay [1] (leaf, 0.125 kg/ha) amounted to 25.0 cm; in assay [1] (leaf, 0.5 kg/ha), 23.5 cm; in assay [1] (leaf, 1.0 kg/ha), 21.0 cm; in assay [1] (leaf, 2.0 kg/ha) it was 21.5 cm; in assay [1] (leaf, 4.0 kg/ha) it was 20.0 cm. Moreover, the Plant height relative in assay [1] (leaf, 0.125 kg/ha) was determined as 83.3; in assay [1] (leaf, 0.5 kg/ha) it was 78.3; in assay [1] (leaf, 1.0 kg/ha), 70.0; in assay [1] (leaf, 2.0 kg/ha), 71.7; in assay [1] (leaf, 4.0 kg/ha), 66.7.

Take `Clc1ccc(N2N=NC3C4CC(C5N=NC45)C32)cc1` (stereo not shown) [drawing 348]: the Plant height is recorded as 22.5 cm in assay [2] (soil, 0.5 kg/ha); 19.0 cm in assay [2] (soil, 1.0 kg/ha); 13.0 cm in assay [2] (soil, 2.0 kg/ha); 8.5 cm in assay [2] (soil, 6.0 kg/ha). Further, the Plant height relative in assay [2] (soil, 0.5 kg/ha) stood at 77.6; in assay [2] (soil, 1.0 kg/ha) it was 65.5; in assay [2] (soil, 2.0 kg/ha), 44.8; in assay [2] (soil, 6.0 kg/ha) it was 29.3.

As for `Brc1ccc(N2N=NC3C4CC(C5N=NC45)C32)cc1` (stereo not shown) [drawing 349], the Plant height is given as 23.0 cm in assay [2] (soil, 0.5 kg/ha); 22.5 cm in assay [2] (soil, 1.0 kg/ha); 19.0 cm in assay [2] (soil, 2.0 kg/ha); 9.0 cm in assay [2] (soil, 6.0 kg/ha). The Plant height relative in assay [2] (soil, 0.5 kg/ha) worked out at 79.3; in assay [2] (soil, 1.0 kg/ha) it was 77.6; in assay [2] (soil, 2.0 kg/ha), 65.5; in assay [2] (soil, 6.0 kg/ha), 31.0.

Turning to `Clc1ccc(N2N=NC3C4CC(C5N=NC45)C32)cc1` (stereo not shown) [drawing 350], the Plant height in assay [2] (leaf, 0.125 kg/ha) was found to be 24.5 cm; in assay [2] (leaf, 0.5 kg/ha) it was 20.0 cm; in assay [2] (leaf, 1.0 kg/ha) it was 18.5 cm; in assay [2] (leaf, 2.0 kg/ha) it was 17.5 cm; in assay [2] (leaf, 4.0 kg/ha) it was 16.0 cm. Besides, the Plant height relative in assay [2] (leaf, 0.125 kg/ha) is 83.1; in assay [2] (leaf, 0.5 kg/ha), 67.8; in assay [2] (leaf, 1.0 kg/ha) it was 62.7; in assay [2] (leaf, 2.0 kg/ha), 59.3; in assay [2] (leaf, 4.0 kg/ha) it was 54.2.

Regarding `Brc1ccc(N2N=NC3C4CC(C5N=NC45)C32)cc1` (stereo not shown) [drawing 351], the Plant height in assay [2] (leaf, 0.125 kg/ha) came out at 25.0 cm; in assay [2] (leaf, 0.5 kg/ha), 20.5 cm; in assay [2] (leaf, 1.0 kg/ha) it was 22.0 cm; in assay [2] (leaf, 2.0 kg/ha) it was 18.0 cm; in assay [2] (leaf, 4.0 kg/ha), 18.5 cm. Besides, the Plant height relative came out at 84.7 in assay [2] (leaf, 0.125 kg/ha); 69.5 in assay [2] (leaf, 0.5 kg/ha); 74.6 in assay [2] (leaf, 1.0 kg/ha); 61.0 in assay [2] (leaf, 2.0 kg/ha); 62.7 in assay [2] (leaf, 4.0 kg/ha).

As to `Clc1ccc(N2N=NC3C4CC(C5N=NC45)C32)cc1` (stereo not shown) [drawing 352], the Plant height in assay [3] (0.5 kg/ha) is listed as 28.0 cm; in assay [3] (1.0 kg/ha), 28.0 cm; in assay [3] (2.0 kg/ha), 23.5 cm; in assay [3] (6.0 kg/ha) it was 16.5 cm. For the same compound, the Plant height relative in assay [3] (0.5 kg/ha) is recorded as 88.9; in assay [3] (1.0 kg/ha) it was 88.9; in assay [3] (2.0 kg/ha) it was 74.6; in assay [3] (6.0 kg/ha), 52.4.

Regarding `Clc1ccc(N2N=NC3C4CC(C5NNC45)C32)cc1` (stereo not shown) [drawing 381], in assay [4] (0.5 kg/ha), the “First cutting, green weight” value turned out to be 28.8 g; the “First cutting, growth height” value was 16.5 cm; the “Second cutting, green weight” value turned out to be 27.2 g; the “Second cutting, growth height” value turned out to be 12.5 cm. For the same compound, in assay [4] (0.5 kg/ha), the “Third cutting, green weight” value is recorded as 17.2 g; the “First cutting, green weight relative” value was 81.6; the “First cutting, growth height relative” value came to 91.7; the “Second cutting, green weight relative” value worked out at 101.9. Besides, in assay [4] (0.5 kg/ha), the “Second cutting, growth height relative” value worked out at 85.0 and the “Third cutting, green weight relative” value came to 113.2. Further, in assay [4] (1.0 kg/ha), the “First cutting, green weight” value turned out to be 21.3 g; the “First cutting, growth height” value is recorded as 13.5 cm; the “Second cutting, green weight” value came out at 20.5 g; the “Second cutting, growth height” value is on record as 9.0 cm. Besides, in assay [4] (1.0 kg/ha), the “Third cutting, green weight” value is recorded as 15.1 g; the “First cutting, green weight relative” value came out at 60.3; the “First cutting, growth height relative” value is recorded as 75.0; the “Second cutting, green weight relative” value stood at 76.8. Moreover, in assay [4] (1.0 kg/ha), the “Second cutting, growth height relative” value is reported as 61.2 and the “Third cutting, green weight relative” value is 99.3. In assay [4] (2.0 kg/ha), the “First cutting, green weight” value is reported as 17.2 g; the “First cutting, growth height” value was 11.5 cm; the “Second cutting, green weight” value worked out at 16.2 g; the “Second cutting, growth height” value was determined as 7.5 cm. Further, in assay [4] (2.0 kg/ha), the “Third cutting, green weight” value stood at 12.5 g; the “First cutting, green weight relative” value is listed as 48.7; the “First cutting, growth height relative” value stood at 63.9; the “Second cutting, green weight relative” value was found to be 60.7. Besides, in assay [4] (2.0 kg/ha), the “Second cutting, growth height relative” value is 51.0 and the “Third cutting, green weight relative” value came out at 82.2. Besides, in assay [4] (4.0 kg/ha), the “First cutting, green weight” value stood at 13.9 g; the “First cutting, growth height” value was determined as 9.0 cm; the “Second cutting, green weight” value is given as 10.2 g; the “Second cutting, growth height” value was found to be 5.0 cm. In addition, in assay [4] (4.0 kg/ha), the “Third cutting, green weight” value was determined as 9.8 g; the “First cutting, green weight relative” value came out at 39.4; the “First cutting, growth height relative” value was determined as 50.0; the “Second cutting, green weight relative” value is listed as 38.2. Further, in assay [4] (4.0 kg/ha), the “Second cutting, growth height relative” value was found to be 34.0 and the “Third cutting, green weight relative” value is 64.5.

Consider `c1cc2sncc2cc1N1N=NC2C3CC(C4N=NC34)C21` (stereo not shown) [drawing 382], for which, in assay [4] (0.5 kg/ha), the “First cutting, green weight” value was 31.8 g; the “First cutting, growth height” value was found to be 18.5 cm; the “Second cutting, green weight” value is given as 28.8 g; the “Second cutting, growth height” value worked out at 14.0 cm. Also, in assay [4] (0.5 kg/ha), the “Third cutting, green weight” value is given as 15.5 g; the “First cutting, green weight relative” value came to 90.1; the “First cutting, growth height relative” value is 102.8; the “Second cutting, green weight relative” value was found to be 107.9. Moreover, in assay [4] (0.5 kg/ha), the “Second cutting, growth height relative” value is recorded as 95.2 and the “Third cutting, green weight relative” value is reported as 102.0. In assay [4] (1.0 kg/ha), the “First cutting, green weight” value was found to be 27.1 g; the “First cutting, growth height” value amounted to 16.5 cm; the “Second cutting, green weight” value was 25.8 g; the “Second cutting, growth height” value stood at 13.0 cm. In addition, in assay [4] (1.0 kg/ha), the “Third cutting, green weight” value is 15.3 g; the “First cutting, green weight relative” value is 76.8; the “First cutting, growth height relative” value worked out at 91.7; the “Second cutting, green weight relative” value was found to be 96.6. For the same compound, in assay [4] (1.0 kg/ha), the “Second cutting, growth height relative” value is reported as 88.4 and the “Third cutting, green weight relative” value is 100.7. Besides, in assay [4] (2.0 kg/ha), the “First cutting, green weight” value was 20.3 g; the “First cutting, growth height” value was determined as 14.5 cm; the “Second cutting, green weight” value was 19.1 g; the “Second cutting, growth height” value is reported as 9.0 cm. Moreover, in assay [4] (2.0 kg/ha), the “Third cutting, green weight” value is 12.8 g; the “First cutting, green weight relative” value is given as 57.5; the “First cutting, growth height relative” value is given as 80.6; the “Second cutting, green weight relative” value is given as 71.5. Also, in assay [4] (2.0 kg/ha), the “Second cutting, growth height relative” value worked out at 61.2 and the “Third cutting, green weight relative” value turned out to be 84.2. Also, in assay [4] (4.0 kg/ha), the “First cutting, green weight” value was 19.5 g; the “First cutting, growth height” value was 12.5 cm; the “Second cutting, green weight” value worked out at 16.8 g; the “Second cutting, growth height” value was 7.0 cm. Also, in assay [4] (4.0 kg/ha), the “Third cutting, green weight” value amounted to 12.8 g; the “First cutting, green weight relative” value is 55.2; the “First cutting, growth height relative” value amounted to 69.5; the “Second cutting, green weight relative” value was determined as 62.9. Further, in assay [4] (4.0 kg/ha), the “Second cutting, growth height relative” value was determined as 47.6 and the “Third cutting, green weight relative” value is listed as 84.2.
